# In patent US7608581B2, “Biofunctional, antimicrobial coatings for medical devices” (Affinergy, Inc., priority 2004, dated 2009):
# Conditions: as compared to SEQ ID NO:73 (two cysteines substituted by serine)
sequence,measurement,value
SDKSHKHWYSYESKYGGS [SEQ ID NO:74],reduction in binding affinity,10 fold
